Columns and labels:
Experiment in all cases: relative viability (nuclei count vs DMSO), 5 days (fraction); higher = more cells survive
Everolimus + Tozasertib = compound: CO[C@H]1C[C@@H]2CC[C@@H](C)[C@@](O)(O2)C(=O)C(=O)N2CCCC[C@H]2C(=O)O[C@H]([C@H](C)C[C@@H]2CC[C@@H](OCCO)[C@H](OC)C2)CC(=O)[C@H](C)/C=C(\C)[C@@H](O)[C@@H](OC)C(=O)[C@H](C)C[C@H](C)/C=C/C=C/C=C/1C [Everolimus] + Cc1cc(Nc2cc(N3CCN(C)CC3)nc(Sc3ccc(NC(=O)C4CC4)cc3)n2)n[nH]1 [Tozasertib] (partner 0.1 µM)
How it was run: (§1)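 Dosing by pin tool came one day after lung cancer cell lines were seeded in 1536-well plates, using either one drug or a fixed anchor-drug dose plus five library-drug doses (not always all listed) in √10 steps. After 5 days, nuclei were counted on 4× images. Relative viability is treated-well nuclei count divided by vehicle-well nuclei count, and values are medians of duplicate plates.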

Everolimus + Dasatinib = compound: CO[C@H]1C[C@@H]2CC[C@@H](C)[C@@](O)(O2)C(=O)C(=O)N2CCCC[C@H]2C(=O)O[C@H]([C@H](C)C[C@@H]2CC[C@@H](OCCO)[C@H](OC)C2)CC(=O)[C@H](C)/C=C(\C)[C@@H](O)[C@@H](OC)C(=O)[C@H](C)C[C@H](C)/C=C/C=C/C=C/1C [Everolimus] + Cc1nc(Nc2ncc(C(=O)Nc3c(C)cccc3Cl)s2)cc(N2CCN(CCO)CC2)n1 [Dasatinib] (partner 0.075 µM)
How it was run: as §1

Everolimus + Luminespib = compound: CO[C@H]1C[C@@H]2CC[C@@H](C)[C@@](O)(O2)C(=O)C(=O)N2CCCC[C@H]2C(=O)O[C@H]([C@H](C)C[C@@H]2CC[C@@H](OCCO)[C@H](OC)C2)CC(=O)[C@H](C)/C=C(\C)[C@@H](O)[C@@H](OC)C(=O)[C@H](C)C[C@H](C)/C=C/C=C/C=C/1C [Everolimus] + CCNC(=O)c1noc(-c2cc(C(C)C)c(O)cc2O)c1-c1ccc(CN2CCOCC2)cc1 [Luminespib] (partner 0.01 µM)
How it was run: as §1

Everolimus + Phenformin = compound: CO[C@H]1C[C@@H]2CC[C@@H](C)[C@@](O)(O2)C(=O)C(=O)N2CCCC[C@H]2C(=O)O[C@H]([C@H](C)C[C@@H]2CC[C@@H](OCCO)[C@H](OC)C2)CC(=O)[C@H](C)/C=C(\C)[C@@H](O)[C@@H](OC)C(=O)[C@H](C)C[C@H](C)/C=C/C=C/C=C/1C [Everolimus] + N=C(N)NC(=N)NCCc1ccccc1 [Phenformin] (partner 250 µM)
How it was run: as §1

Everolimus + OSI-027 = compound: CO[C@H]1C[C@@H]2CC[C@@H](C)[C@@](O)(O2)C(=O)C(=O)N2CCCC[C@H]2C(=O)O[C@H]([C@H](C)C[C@@H]2CC[C@@H](OCCO)[C@H](OC)C2)CC(=O)[C@H](C)/C=C(\C)[C@@H](O)[C@@H](OC)C(=O)[C@H](C)C[C@H](C)/C=C/C=C/C=C/1C [Everolimus] + COc1cccc2cc(-c3nc([C@H]4CC[C@H](C(=O)O)CC4)n4ncnc(N)c34)[nH]c12 [OSI-027] (partner 0.5 µM)
How it was run: as §1

Everolimus + Foretinib = compound: CO[C@H]1C[C@@H]2CC[C@@H](C)[C@@](O)(O2)C(=O)C(=O)N2CCCC[C@H]2C(=O)O[C@H]([C@H](C)C[C@@H]2CC[C@@H](OCCO)[C@H](OC)C2)CC(=O)[C@H](C)/C=C(\C)[C@@H](O)[C@@H](OC)C(=O)[C@H](C)C[C@H](C)/C=C/C=C/C=C/1C [Everolimus] + COc1cc2c(Oc3ccc(NC(=O)C4(C(=O)Nc5ccc(F)cc5)CC4)cc3F)ccnc2cc1OCCCN1CCOCC1 [Foretinib] (partner 0.25 µM)
How it was run: as §1

Everolimus = compound: CO[C@H]1C[C@@H]2CC[C@@H](C)[C@@](O)(O2)C(=O)C(=O)N2CCCC[C@H]2C(=O)O[C@H]([C@H](C)C[C@@H]2CC[C@@H](OCCO)[C@H](OC)C2)CC(=O)[C@H](C)/C=C(\C)[C@@H](O)[C@@H](OC)C(=O)[C@H](C)C[C@H](C)/C=C/C=C/C=C/1C [Everolimus]
How it was run: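 Viability was defined as treated-well nuclei divided by vehicle-well nuclei, with the median taken over replicate plates. Cells from lung cancer lines sat overnight at 37 °C in 1536-well plates, received five √10-spaced library-drug doses by pinning on vehicle-anchored plates, and grew 5 days without medium change before one-step fixation, permeabilisation and Hoechst staining, 4× imaging and MetaXpress nuclear counts. Only plates with control CV under 25% and at least one doubling were kept.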

**Q.** With NCI-H1623 as the cell line, how does the relative viability (Everolimus + Tozasertib; first compound 0.01 µM) read?
**A.** 0.411

**Q.** And the relative viability (Everolimus + Tozasertib; first compound 0.03162 µM)?
**A.** 0.396

**Q.** What about the relative viability (Everolimus + Tozasertib; first compound 0.1 µM) of the same cell line?
**A.** 0.39

**Q.** And the relative viability (Everolimus + Tozasertib; first compound 0.3162 µM)?
**A.** 0.381

**Q.** What about the relative viability (Everolimus + Tozasertib; first compound 1 µM) of the same cell line?
**A.** 0.385

**Q.** And the relative viability (Everolimus + Dasatinib; first compound 0.01 µM)?
**A.** 0.388

**Q.** And the relative viability (Everolimus + Dasatinib; first compound 0.03162 µM)?
**A.** 0.566

**Q.** What about the relative viability (Everolimus + Dasatinib; first compound 0.1 µM) of the same cell line?
**A.** 0.317

**Q.** And the relative viability (Everolimus + Dasatinib; first compound 0.3162 µM)?
**A.** 0.352

**Q.** What about the relative viability (Everolimus + Dasatinib; first compound 1 µM) of the same cell line?
**A.** 0.382

**Q.** What about the relative viability (Everolimus + Luminespib; first compound 0.01 µM) of the same cell line?
**A.** 0.467

**Q.** What about the relative viability (Everolimus + Luminespib; first compound 0.03162 µM) of the same cell line?
**A.** 0.336

**Q.** What about the relative viability (Everolimus + Luminespib; first compound 0.1 µM) of the same cell line?
**A.** 0.307

**Q.** And the relative viability (Everolimus + Luminespib; first compound 0.3162 µM)?
**A.** 0.326

**Q.** What about the relative viability (Everolimus + Luminespib; first compound 1 µM) of the same cell line?
**A.** 0.296

**Q.** What about the relative viability (Everolimus + Phenformin; first compound 0.01 µM) of the same cell line?
**A.** 0.466

**Q.** And the relative viability (Everolimus + Phenformin; first compound 0.03162 µM)?
**A.** 0.622

**Q.** And the relative viability (Everolimus + Phenformin; first compound 0.1 µM)?
**A.** 0.444

**Q.** And the relative viability (Everolimus + Phenformin; first compound 0.3162 µM)?
**A.** 0.444

**Q.** What about the relative viability (Everolimus + Phenformin; first compound 1 µM) of the same cell line?
**A.** 0.512

**Q.** What about the relative viability (Everolimus + OSI-027; first compound 0.01 µM) of the same cell line?
**A.** 0.408

**Q.** What about the relative viability (Everolimus + OSI-027; first compound 0.03162 µM) of the same cell line?
**A.** 0.395

**Q.** What about the relative viability (Everolimus + OSI-027; first compound 0.1 µM) of the same cell line?
**A.** 0.362

**Q.** And the relative viability (Everolimus + OSI-027; first compound 0.3162 µM)?
**A.** 0.384

**Q.** And the relative viability (Everolimus + OSI-027; first compound 1 µM)?
**A.** 0.372

**Q.** What about the relative viability (Everolimus + Foretinib; first compound 0.01 µM) of the same cell line?
**A.** 0.721

**Q.** What about the relative viability (Everolimus + Foretinib; first compound 0.03162 µM) of the same cell line?
**A.** 0.831

**Q.** And the relative viability (Everolimus + Foretinib; first compound 0.1 µM)?
**A.** 0.53

**Q.** What about the relative viability (Everolimus + Foretinib; first compound 0.3162 µM) of the same cell line?
**A.** 0.511

**Q.** And the relative viability (Everolimus + Foretinib; first compound 1 µM)?
**A.** 0.563

**Q.** And the relative viability (Everolimus; 0.01 µM)?
**A.** 0.773

**Q.** What about the relative viability (Everolimus; 0.03162 µM) of the same cell line?
**A.** 0.622

**Q.** And the relative viability (Everolimus; 0.1 µM)?
**A.** 0.595

**Q.** What about the relative viability (Everolimus; 0.3162 µM) of the same cell line?
**A.** 0.581

**Q.** What about the relative viability (Everolimus; 1 µM) of the same cell line?
**A.** 0.514

Reference: the supplement of paper PMC10307832
